Results: patent publication US9072753B1, “Gargle method to reduce the duration of common cold symptoms” (priority 2001, dated 2015)
Entries after “also recorded” stand apart in the source; their conditions may differ. Read-outs that look alike come from different tables or passages of the source.

Tests used:
Rhinovirus 14 = test: Antiviral activity testing against rhinovirus (Rhinovirus 14 in KB cells); type: cell-based; settings: for Virus Inhibition: 4 values and above indicate excellent antiviral activity
common cold [1] = test: Case examples, nonalcoholic mouthwash remedies in subjects with a cold; type: in vivo, human; settings: single subject per example; 15 ml mouthwash three times a day for at least two days
Experimental: In order to facilitate a more complete understanding of the invention, a number of Examples are provided below. However, the scope of the invention is not limited to specific embodiments disclosed in these Examples, which are for purposes of illustration only. In each of the following Examples, the subjects were administered one tablespoon (15 ml) of remedy in a mouthwash formulation three times a day for at least two days comprising: […]

[2] = system: Influenza A/Hong Kong/68 (H3N2); test: Antiviral activity testing against influenza virus in MDCK cells; type: cell-based; settings: Influenza A/Hong Kong/68 (H3N2) in MDCK cells; for Virus Inhibition: 4 values and above indicate excellent antiviral activity
Source text: Results of antiviral invitro testing performed at baylor college of medicine department of molecular virology & microbiology.

[3] = system: Madin Darby Canine Kidney (MDCK) cells; test: Toxicity of materials in the influenza test (MDCK cells); type: cell-based; settings: Table 2
[4] = healthy HIV-negative humans; cited from earlier work
[5] = system: broad spectrum of viruses; settings: cited from earlier work
myxoviruses = settings: cited from earlier work
[6] = system: RNA-dependent DNA polymerases (reverse transcriptases) of both Moloney and Rauscher leukemia viruses; settings: cited from earlier work
[7] = in vivo; cited from earlier work
cells in tissue culture = settings: high concentrations; cited from earlier work
common cold [8] = settings: after seven days; 37 zinc-treated subjects; cited from earlier work

Row | Compound | Virus Inhibition (Rhinovirus 14) | Recovery from the cold (common cold [1]) | Virus Inhibition [2] | Toxicity [3] | Toxicity (KB cells; human) | other results
1 | O=C1O[C@H]([C@@H](O)CO)C(O)=C1O [Ascorbic Acid] | 4 | within one day; also recorded: within two days |  |  |  | 
2 | O=C([O-])O.[Na+] [Baking Soda] | 4 | within one day; also recorded: within two days; also recorded: within three days | 2 | 0 |  | Selective Inhibition (Rhinovirus 14): 2; Selective Inhibition [2]: 4; Toxicity (KB cells): 2
3 | CCCc1cc(=O)oc2c3c(c4c(c12)OC(C)(C)C=C4)O[C@H](C)[C@@H](C)[C@@H]3O [Calanolide A] |  |  |  |  |  | Safety and tolerability [4]: safe and well tolerated
4 | O=C(O)CC(O)(CC(=O)O)C(=O)O [Citric Acid] | 6 | within three days; also recorded: within one day; also recorded: within four days; also recorded: within two days; also recorded: within ten days; also recorded: within five days | 6 | 6 | 6 | 
5 | OO [Hydrogen Peroxide] | 7 |  | 6 | 6 | 7 | 
6 | O=C(O)CC(O)C(=O)O (centres unmarked) [Malic Acid] | 6 |  | 6 | 6 | 6 | 
7 | COC(=O)C1=CO[C@@H](C)[C@@H](C=O)[C@@H]1CC(=O)[O-].COC(=O)C1=CO[C@@H](C)[C@@H](C=O)[C@@H]1CC(=O)[O-].[Ca+2] [calcium elenolate] |  |  |  |  |  | Virucidal activity in vitro [5]: virucidal for a broad spectrum of viruses in vitro; Inactivation of myxoviruses (myxoviruses): inactivates all myxoviruses so far tested; Inhibition of reverse transcriptases [6]: inhibits; Tolerability in animals [7]: well tolerated; Toxicity to cells in tissue culture (cells in tissue culture): relatively nontoxic
8 | zinc |  |  |  |  |  | Subjects asymptomatic (common cold [8]): 86%
